In patent publication US20220387435A1, “USE OF MULTI-TARGET PROTEIN KINASE INHIBITOR” (CSPC Zhongqi Pharmaceutical Technology (Shijiazhuang) Co., …, priority 2019, published 2022):
Values joined by “and” are separate entries in the source; they are usually repeats but may differ in a detail not shown here. Equal entries are not always repeated. Where two headings read alike, the source gives them in different places.

System: Chinese adult subjects with FLT3-mutant R/R AML
Test: Phase II clinical study, safety

## CC(C)n1c(Nc2cccnc2)nc2cnc(Nc3ccc(N4CCN(C)CC4)cc3)nc21 [Compound A]
  Adverse events leading to death: 3 (23.1) n (%)
  Adverse events of > Grade 3: 11 (84.6) n (%)
  Important adverse reactions: 8 (61.5) n (%)
  Non-hematologic adverse events of > Grade 3: 11 (84.6) n (%)
150 mg BID group
  elevated blood lactate dehydrogenase: 1 subject
150 mg BID group (1 subject)
  elevated aspartate amino transferase: 7.1%
150 mg BID group (2 subjects)
  adverse reactions classified as cardiac organ diseases (SOC): 14.3%
  adverse reactions classified as hepatobiliary system disease (SOC): 14.3%
  elevated hemobilirubin: 14.3%
150 mg BID group (7 cases)
  incidence of hematological adverse reactions of grade ≥4: 50%
150 mg group (N = 14)
  Adverse events: 14 (100.0) n (%)
  Adverse events leading to death: 4 (28.6) n (%)
  Adverse events leading to dose reduction: 3 (21.4) n (%)
  Adverse events leading to withdrawal from the trial: 3 (21.4) n (%)
  Adverse events of > Grade 3: 13 (92.9) n (%)
  Adverse reactions: 12 n (%) and 12 (85.7) n (%)
  Adverse reactions leading to death: 1 (7.1) n (%)
  Adverse reactions leading to dose reduction: 3 (21.4) n (%)
  Adverse reactions leading to withdrawal from the trial: 0 (0) n (%)
  Adverse reactions of > Grade 3: 9 (64.3) n (%)
  Important adverse events: 11 (78.6) n (%)
  Important adverse reactions: 8 (57.1) n (%)
  Non-hematologic adverse events of > Grade 3: 10 (71.4) n (%)
  Non-hematological adverse reactions of > Grade 3: 4 (28.6) n (%)
  Serious adverse events: 11 (78.6) n (%)
  Serious adverse reactions: 5 (35.7) n (%)
  adverse events of > Grade 4: 8 (57.1) n (%)
  adverse reactions of > Grade 4: 7 (50.0) n (%)
200 mg BID group
  adverse reactions classified as cardiac organ diseases (SOC): 0 subjects
  electrocardiogram high voltage: 1 subject
200 mg BID group (1 subject)
  elevated hemobilirubin: 25%
200 mg BID group (2 cases)
  incidence of hematological adverse reactions of grade ≥4: 50%
200 mg group (N = 4)
  Adverse events: 4 (100.0) n (%)
  Adverse events leading to death: 1 (25.0) n (%)
  Adverse events leading to dose reduction: 2 (50.0) n (%)
  Adverse events leading to withdrawal from the trial: 1 (25.0) n (%)
  Adverse events of > Grade 3: 4 (100.0) n (%)
  Adverse reactions: 4 n (%) and 4 (100.0) n (%)
  Adverse reactions leading to death: 0 (0) n (%)
  Adverse reactions leading to dose reduction: 2 (50.0) n (%)
  Adverse reactions leading to withdrawal from the trial: 0 (0) n (%)
  Adverse reactions of > Grade 3: 3 (75.0) n (%)
  Important adverse events: 4 (100.0) n (%)
  Important adverse reactions: 3 (75.0) n (%)
  Non-hematologic adverse events of > Grade 3: 4 (100.0) n (%)
  Non-hematological adverse reactions of > Grade 3: 3 (75.0) n (%)
  Serious adverse events: 3 (75.0) n (%)
  Serious adverse reactions: 2 (50.0) n (%)
  adverse events of > Grade 4: 2 (50.0) n (%)
  adverse reactions of > Grade 4: 2 (50.0) n (%)
300 mg QD group
  electrocardiogram high voltage: 1 subject
300 mg QD group (1 subject)
  adverse reactions classified as cardiac organ diseases (SOC): 7.7%
300 mg QD group (2 subjects)
  adverse reactions classified as hepatobiliary system disease (SOC): 15.4%
  elevated gamma-glutamyltransferase: 15.4%
300 mg QD group (3 subjects)
  elevated blood alkaline phosphatase: 23.1%
  elevated hemobilirubin: 23.1%
300 mg QD group (9 cases)
  incidence of hematological adverse reactions of grade ≥4: 69.2%
300 mg group (N = 14)
  Adverse events: 13 (100.0) n (%)
  Adverse events leading to dose reduction: 2 (15.4) n (%)
  Adverse events leading to withdrawal from the trial: 0 (0) n (%)
  Adverse reactions: 12 n (%) and 12 (92.3) n (%)
  Adverse reactions leading to death: 1 (7.7) n (%)
  Adverse reactions leading to dose reduction: 1 (7.7) n (%)
  Adverse reactions leading to withdrawal from the trial: 0 (0) n (%)
  Adverse reactions of > Grade 3: 9 (69.2) n (%)
  Important adverse events: 11 (84.6) n (%)
  Non-hematological adverse reactions of > Grade 3: 7 (53.8) n (%)
  Serious adverse events: 10 (76.9) n (%)
  Serious adverse reactions: 6 (46.2) n (%)
  adverse events of > Grade 4: 9 (69.2) n (%)
  adverse reactions of > Grade 4: 9 (69.2) n (%)
31 subjects (1 case)
  serious hematological adverse reaction: anemia: 3.2%
  serious hematological adverse reaction: bone marrow failure: 3.2%
  serious hematological adverse reaction: hemolyticanemia: 3.2%
  serious hematological adverse reaction: leukocytopenia: 3.2%
31 subjects (2 cases)
  serious hematological adverse reaction: neutropenia: 6.5%
31 subjects (3 cases)
  serious hematological adverse reaction: thrombocytopenia: 9.7%
31 subjects (4 cases)
  adverse reactions of grade ≥3: infectious pneumonia: 12.9%
31 subjects (5 cases)
  adverse reactions of grade ≥3: diarrhea: 16.1%
31 subjects (6 cases)
  adverse reactions of grade ≥3: Lymphocytopenia: 19.4%
  adverse reactions of grade ≥3: anemia: 19.4%
31 subjects (8 cases)
  adverse reactions of grade ≥3: thrombocytopenia: 25.8%
31 subjects (11 cases)
  adverse reactions of grade ≥3: neutropenia: 35.5%
31 subjects (16 cases)
  adverse reactions of grade ≥3: leukocytopenia: 51.6%
Total (N = 31)
  Adverse events: 31 n (%) and 31 (100.0) n (%)
  Adverse events leading to death: 8 (25.8) n (%)
  Adverse events leading to dose reduction: 7 (22.6) n (%)
  Adverse events leading to withdrawal from the trial: 4 (12.9) n (%)
  Adverse events of > Grade 3: 28 (90.3) n (%)
  Adverse reactions: 28 (90.3%) n (%) and 28 (90.3) n (%)
  Adverse reactions leading to death: 2 (6.5) n (%)
  Adverse reactions leading to dose reduction: 6 (19.4) n (%)
  Adverse reactions leading to withdrawal from the trial: 0 (0) n (%)
  Adverse reactions of > Grade 3: 21 (67.7) n (%)
  Important adverse events: 26 (83.9) n (%)
  Important adverse reactions: 19 (61.3) n (%)
  Non-hematologic adverse events of > Grade 3: 25 (80.6) n (%)
  Non-hematological adverse reactions of > Grade 3: 14 (45.2) n (%)
  Serious adverse events: 24 (77.4) n (%)
  Serious adverse reactions: 13 (41.9) n (%)
  adverse events of > Grade 4: 19 (61.3) n (%)
  adverse reactions of > Grade 4: 18 (58.1) n (%)
All groups
  adverse reactions of QT interval prolongation: No adverse reactions of QT interval prolongation were observed
  examination abnormality related to the heart (SOC): 3 subjects
  grade of heart-related adverse reactions: 1-2 Grades
  grade of hepato toxicities: 1-2 Grades
Throughout the trial
  liver-, kidney-, and heart-related adverse reactions of grade ≥3: no liver-, kidney-, and heart-related adverse reactions of grade ≥3 occurred
Total (1 subject)
  elevated aspartate amino transferase: 3.2%
Total (2 subjects)
  elevated gamma-glutamyltransferase: 6.5%
Total (3 subjects)
  elevated blood alkaline phosphatase: 9.7%
Total (4 subjects)
  adverse reactions classified as hepatobiliary system disease (SOC): 12.9%
Total (6 subjects)
  elevated hemobilirubin: 19.4%
total, 31 subjects (3 subjects)
  adverse reactions classified as cardiac organ diseases (SOC): 9.7%
